# System: 5′ UTR of HCV mRNA
# Assay: Phage panning and phage Elisa on biotinylated RNA target
# Type: binding
# Conditions: phage clones; positive if A405 >2-fold over background
# Method: Surrogate peptides were obtained by panning a portion of the 5′ UTR of HCV mRNA using both the 20 mer and 40 mer random libraries. All solutions and surfaces were pretreated with DEPC or RNaseZap (Ambion, Inc.), respectively, to eliminate RNase contamination that may compromise the integrity of the RNA. Biotinylated—RNA target was diluted to 1 mg/ml in binding buffer (PBS containing 1 mM MgCl2), denatured at 65° C. for 5 min and reannealed by slow cooling to room temperature to allow for appropriate refolding. The synthetic biotinylated-RNA target had the following sequence, 5′-biotin′AA UUGCCAGGACGACCGGGUCCUUUCUUGGAU CM CCC GCU CM UGC CUG GAG AUU-3′. Reannealed RNAs were stored in small aliquots (10-25 μl/tube) at −20° C. Microtiter wells were treated with RNaseZap (Ambion, Inc.) before use. One hundred microliters of RNA solution diluted to 2.5 ng/μl was added to an appropriate number of wells in a 96-well microtiter plate precoated with Streptavidin (Pierce) and incubated for 1 hr at room temperature. Unbound streptavidin was then blocked with 50 μl of 2 mM biotin at room temperature for 1 hr. Four wells were used for each round of panning and 100 μl phage was added to each well. Pahge were precipitated with RNase-free 6% PEG 8000+0.3 M NaCl, washed with the same solution once and resuspended in RNase-free PBS+1 mM MgCl2+Superasin (RNase inhibitor from Ambion, Inc.). For the first round, the input phage titer was 1×10^13 cfu/ml. For rounds 2 and 3, the input phage titer was approximately 10^11 cfu/ml. Phage were allowed to bind for two to three hours at room temperature. The wells were then quickly washed 13 times with 400 μl/well of PBS. Bound phage were eluted by incubation with 150 μl/well of 50 mM glycine-HCl, pH 2.2+0.1% BSA for 5 min. The resulting solution was then neutralized with Tris-HCl, pH 8.0. Log phase TG1 cells were infected with the eluted phage by incubation at 37° C. for 1 hr. Helper phage (M13KO7) was then added (multiplicity of infection(MOI)=15) and cells incubated in the presence of 50 μg/ml ampicillin and 2% glucose for 1 hr at 37° C. with shaking at 250 rpm. Following infection, cells were pelleted, resuspended in the initial culture volume of 2×YT containing 50 μg/ml ampicillin and 50 μg/ml Kanamycin and grown overnight at 37° C. with shaking at 225 rpm. Cells from the overnight culture were pelleted and supernatant containing phage was recovered. Phage was precipitated with 6% PEG 8000, 300 mM NaCl and chilled on ice for 1 hr. […]
# For Elisa analysis of individual clones, colonies were picked and phage prepared as described above using helper phage, M13KO7. […] Plates were analyzed at 405 nm using a SpectraMax 340 plate reader (Molecular Devices) and SoftMax Pro software. […]
row,Substance,Binding to HCV mRNA target
1,LLVTGQFP--SQLLLGGAVCGP--STPRLRTGLCRLSGT (LLVTGQFPSQLLLGGAVCGPSTPRLRTGLCRLSGT) [HCV-3-F5],binders
2,FTTPRHLSGRTVQMMRDSTS [HCV-3-C3],binders
3,RRTCGDPAAMLERLSCRAGDYRGASHTGRLLNLRGMHQYP [HCV-3-H8],binders
4,TSGESSGDRTRRVLTSSSARTILPN [HCV-NG-D9],binders

# From patent US20030054348A1, “Methods of identifying the activity of gene products” (priority 2000, published 2003)
